Reference: patent US20030109504A1, “Treatment of movement disorders with metabotropic glutamate receptors antagonist” (priority 2000, published 2003)
“Also recorded” adds a separate entry of the source.

What was measured:
[1] = test system: reserpine-treated rat model of Parkinson's disease; experiment: Locomotion (mobile counts) in reserpine-treated rat model of Parkinson's disease, antagonist combined with chloro-APB or quinpirole; type: in vivo; details: for total mobile counts: antagonist 1 mg/kg plus chloro-APB 0.2 mg/kg, versus vehicle plus chloro-APB (FIG. 1)
Description: The effect of metabotropic glutamate receptor antagonists on the anti-parkinsonian effects of chloro-APB (0.2 mg/kg) or quinpirole (0.1 mg/kg) was assessed in a reserpine-treated rat model of Parkinson's disease.
Male Sprague-Dawley rats were split into two groups A and B. Rats in both groups were rendered parkinsonian by subcutaneous administration of reserpine (3 mg/kg) for 18 hours.
After the 18 hours Group A were treated with either chloro-APB (0.2 mg/kg) or quinpirole (0.1 mg/kg) and then subdivided into groups A1, A2 and A3. These subgroups were additionally administered the following selective metabotropic glutamate receptor antagonists (1 mg/kg):
A1: (RS)-1-Aminoindan-1,5-dicarboxylic acid (AIDA—Group I metabotropic glutamate receptor antagonist);
A2: (2S)-alpha-Ethylglutamic acid (EGLU—Group II metabotropic glutamate receptor antagonist); and
A3: (RS)-alpha-Methylserine-O-phosphate (MSOP—Group III metabotropic glutamate receptor antagonist).
Group B were treated with chloro-APB (0.2 mg/kg) and vehicle for the antagonists only.
The locomotion of the rats in Groups A and B was measured over a one hour period using Benwick locomotor monitors. These locomotion monitors consist of a visually-shielded open-field arena, the perimeter of which is surrounded by a series of infra-red beams arranged at 5 cm intervals. PC-based software (Amlogger) assesses the number of beams broken. The number of beams broken as part of a locomotor movement (mobile counts) or the number of beam breaks while the animal is not locomoting (static counts) were measured. In addition, the system assesses the time for which animals are mobile or static.

[2] = test system: MPTP-lesioned marmoset model of Parkinson's disease; experiment: Mobility, locomotor activity and dyskinesia in MPTP-lesioned marmoset model of Parkinson's disease, combination with L-DOPA; type: in vivo, Marmosets (Callithrix jacchus); details: MPTP-lesioned marmosets; for L-DOPA-induced mobility and locomotor activity (reversal of parkinsonism): L-DOPA 8 mg/kg with or without SIB-1893 10 mg/kg (FIG. 3)
Description: The effect of the mGluR group I (selective for mGlu5) receptor antagonist SIB-1893 in combination with L-DOPA was assessed in the MPTP-lesioned marmoset model of Parkinson's disease. The ability of the traditional anti-parkinsonian agent L-DOPA to alleviate symptoms was compared with the combined therapy.
Marmosets (Callithrix jacchus) (bred in a closed colony at the University of Manchester) are rendered parkinsonian by subcutaneous injection of 2 mg kg^−1 MPTP for 5 consecutive days. The marmosets are allowed to recover for a minimum of 10 weeks until their parkinsonism becomes stable. The degree of activity and disability before and after MPTP treatment is assessed using a combination of scales as described below. Animals are then treated with L-DOPA for at least 3 weeks to prime them to elicit dyskinesia.
1) Activity—a quantitative assessment using computer-based activity monitors was obtained every 5 minutes for the duration of the experiment. p1 2) Parkinsonian disability—non-parametric measures based on the following scales:
Mobility score: 0=no movement, 1=movement of head on the floor of the cage, 2=movement of limbs, but no locomotion, on the floor of the cage, 3=movement of head or trunk on wall of cage or perch, 4=movement of limbs, but no locomotion, on wall of cage or perch, 5=walking around floor of cage or eating from hopper on floor, 6=hopping on floor of cage, 7=climbing onto wall of cage or perch, 8=climbing up and down the walls of the cage or along perch, 9=running, jumping, climbing between cage walls/perch/roof, uses limbs through a wide range of motion and activity.
Dyskinesia score: 0Absent, 1=Mild, fleeting, 2=Moderate, not interfering with normal activity, 3=Marked, at times interfering with normal activity, 4=Severe, continuous, replacing normal activity.
The behavioural tests were assessed every 30 minutes for 4 hours, by post hoc analysis of video-recordings by an observer blinded to the treatment.
The treatments were randomised such that on each day all six marmosets received one of the treatments. […]

[3] = reserpine-treated Sprague-Dawley rats, one hour

With NC1(C(=O)O)CCc2cc(C(=O)O)ccc21 (racemic) [AIDA, (RS)-1-Aminoindan-1,5-dicarboxylic acid] the total mobile counts [1, 3] was “greater than those treated with vehicle and chloro-APB only” and the “efficacy in combination therapy (overall conclusion)” value ([1]; reserpine-treated rats, combination with chloro-APB or quinpirole) was “particularly effective”.
CC(N)(COP(=O)(O)O)C(=O)O (racemic) [MSOP, (RS)-alpha-Methylserine-O-phosphate] was tested, and the total mobile counts [1, 3] was “greater than those treated with vehicle and chloro-APB only”.
CC[C@](N)(CCC(=O)O)C(=O)O [EGLU, (2S)-alpha-Ethylglutamic acid] was tested, and the “mobility (locomotion)” value ([1]; reserpine-treated Sprague-Dawley rats, antagonist 1 mg/kg plus quinpirole 0.1 mg/kg, one hour, versus vehicle plus quinpirole (FIG. 2)) was “greater mobility than those treated with vehicle and quinpirole only”.
N[C@@H](Cc1ccc(O)c(O)c1)C(=O)O [L-DOPA] was tested, and the “L-DOPA-induced mobility and locomotor activity (reversal of parkinsonism)” value [2] was “good anti-parkinsonian action”.
In the case of Cc1cccc(C=Cc2ccccc2)n1 [SIB-1893, 2-Methyl-6-(2-phenylethenyl)pyridine], the L-DOPA-induced dyskinesia ([2]; L-DOPA 8 mg/kg plus SIB-1893 10 mg/kg versus vehicle plus L-DOPA, p<0.05 (FIG. 4)) is reported as “significantly less severe L-DOPA-induced dyskinesia” and the “L-DOPA-induced mobility and locomotor activity (reversal of parkinsonism)” value [2] is reported as “good anti-parkinsonian action; also recorded: as effective as L-DOPA alone in reversing parkinsonism”.
